Measurements taken from US8133849B2, “Herbicidal compounds” (Syngenta Limited, priority 2007, dated 2012).

Columns and labels:
Experiment in all cases: Example B2 herbicidal action, post-emergence, pots in glasshouse, damage score 0-10
Type in all cases: in vivo
Conditions in all cases: application post-emergence, rate 1000 g/ha, evaluated after 13 days
Amaranthus retroflexus = tested on: Amaranthus retroflexus
Experimental: (§1) Seeds of a variety of test species were sown in standard soil in pots. After 8 days cultivation (post-emergence) under controlled conditions in a glasshouse (at 24/16° C., day/night; 14 hours light; 65% humidity), the plants were sprayed with an aqueous spray solution derived from the formulation of the technical active ingredient in acetone/water (50:50) solution containing 0.5% Tween 20 (polyoxyethelyene sorbitan monolaurate, CAS RN 9005-64-5). The test plants were then grown in a glasshouse under controlled conditions in a glasshouse (at 24/16° C., day/night; 14 hours light; 65% humidity) and watered twice daily. After 13 days, the test was evaluated (10=total damage to plant; 0=no damage to plant).

Setaria faberi = tested on: Setaria faberi
Experimental: as §1

Solanum nigrum = tested on: Solanum nigrum
Experimental: as §1

Echinochloa crus-galli = tested on: Echinochloa crus-galli
Experimental: as §1

Ipomea hederaceae = tested on: Ipomea hederaceae
Experimental: as §1

Row | SMILES | AMARE damage score (10=total damage to plant; 0=no damage to plant) (Amaranthus retroflexus) | SETFA damage score (10=total damage to plant; 0=no damage to plant) (Setaria faberi) | SOLNI damage score (10=total damage to plant; 0=no damage to plant) (Solanum nigrum) | ECHCG damage score (10=total damage to plant; 0=no damage to plant) (Echinochloa crus-galli) | IPOHE damage score (10=total damage to plant; 0=no damage to plant) (Ipomea hederaceae)
1 | CCN1c2nccnc2C(OC(=O)C(C)(C)C)=C(c2cccc(Cl)c2Cl)S1(=O)=O [Compound C98] | 0 | 0 | 3 | 0 | 0
2 | CCN1c2nccnc2C(O)=C(c2cc(F)c(Cl)cc2Cl)S1(=O)=O [Compound D23] | 8 | 2 | 8 | 2 | 9
3 | O=S1(=O)C(c2ccc(Cl)cc2Cl)=C(OCC(F)(F)F)c2nccnc2N1CC(F)(F)F [Compound C106, 3-(2,4-dichloro-phenyl)-4-(2,2,2-trifluoro-ethoxy)-1-(2,2,2-trifluoro-ethyl)-1H-2-thia-1,5,8-triaza-naphthalene 2,2-dioxide] | 6 | 0 | 7 | 1 | 3
4 | O=C(OC1=C(c2c(Cl)cccc2C(F)(F)F)S(=O)(=O)N(CC(F)F)c2nccnc21)Sc1ccccc1 [Compound C125] | 9 | 8 | 9 | 8 | 8
5 | CSC(=O)OC1=C(c2c(Cl)cccc2C(F)(F)F)S(=O)(=O)N(CC(F)F)c2nccnc21 [Compound C129] | 10 | 9 | 10 | 9 | 9
6 | O=S1(=O)C(c2c(C(F)(F)F)cccc2C(F)(F)F)=C(O)c2nccnc2N1CC(F)F [Compound D42] | 7 | 7 | 8 | 4 | 9
7 | CCN1c2nccnc2C(OC(=O)C(C)C)=C(c2cc(Cl)ccc2C(F)(F)F)S1(=O)=O [Compound C110] | 9 | 4 | 8 | 5 | 8
8 | CCN1c2nccnc2C(OC(=O)C(C)(C)C)=C(c2cc(Cl)ccc2C(F)(F)F)S1(=O)=O [Compound C108] | 4 | 2 | 7 | 3 | 3
9 | CC(C)(C)C(=O)OC1=C(c2c(F)ccc(Br)c2Cl)S(=O)(=O)N(CC(F)F)c2nccnc21 [Compound C35] | 10 | 7 | 10 | 7 | 10
10 | CC(C)(C)C(=O)OC1=C(c2ccc(-c3ccc(Cl)cc3F)cc2Cl)S(=O)(=O)N(CC(F)F)c2nccnc21 [Compound C142] | 4 | 0 | 6 | 1 | 3
11 | CCN1c2nccnc2C(O)=C(c2c(Cl)cccc2C(F)(F)F)S1(=O)=O [Compound D6] | 10 | 5 | 10 | 7 | 9
12 | O=[N+]([O-])c1ccccc1C1=C(O)c2nccnc2N(CC(F)F)S1(=O)=O [Compound D32] | 5 | 1 | 6 | 0 | 5
13 | CC(C)C(=O)OC1=C(c2c(C(F)(F)F)cccc2C(F)(F)F)S(=O)(=O)N(CC(F)F)c2nccnc21 [Compound C79] | 9 | 6 | 9 | 7 | 9
14 | CCSC(=O)OC1=C(c2ccccc2I)S(=O)(=O)N(CC(F)F)c2nccnc21 [Compound C82] | 10 | 8 | 10 | 9 | 10
15 | CCN1c2nccnc2C(OC(=O)C(C)C)=C(c2ccccc2OC(F)(F)F)S1(=O)=O [Compound C13] | 10 | 3 | 9 | 10 | 10
16 | CC(C)C(=O)OC1=C(c2ccccc2Br)S(=O)(=O)N(CC(F)F)c2nccnc21 [Compound C39] | 9 | 4 | 10 | 4 | 9
17 | CCN1c2nccnc2C(O)=C(c2c(F)ccc(Br)c2Cl)S1(=O)=O [Compound D13] | 8 | 2 | 9 | 5 | 9
18 | CCN1c2nccnc2C(O)=C(c2ccc(Cl)c(Cl)c2)S1(=O)=O [Compound D8] | 9 | 0 | 2 | 0 | 0
19 | CC(C)C(=O)OC1=C(c2c(Cl)ccc(Cl)c2Cl)S(=O)(=O)N(C)c2nccnc21 [Compound C92] | 6 | 3 | 9 | 4 | 9
20 | C#CCN1c2nccnc2C(OC(=O)C(C)C)=C(c2ccccc2[N+](=O)[O-])S1(=O)=O [Compound C68] | 0 | 0 | 2 | 0 | 1
21 | CC(C)(C)C(=O)OC1=C(c2c(F)ccc(-c3cccc(Cl)c3)c2Cl)S(=O)(=O)N(CC(F)F)c2nccnc21 [Compound C42, 2,2-dimethylpropionic acid-3-(2,3′-dichloro-4-fluoro-biphenyl-3-yl)-1-(2,2-difluoroethyl)-2,2-dioxo-1,2-dihydro-2-λ-6-thia-1,5,8-triaza-naphthalen-4-yl ester] | 2 | 2 | 3 | 2 | 4
